Source: patent US20210263122A1, “RATIOMETRIC PULSED CEST IMAGING” (BRACCO IMAGING S.P.A., priority 2015, published 2021)

How the values were obtained:
[1] = Chemical exchange rate (kex) of amide protons from 1H-NMR linewidth; format: physicochemical
Description: High-resolution 1H-NMR spectra were recorded on a Bruker Avance 600 spectrometer (Bruker BioSpin Rheinstetten, Germany) operating at 14 T (corresponding to a proton Larmor frequency of 600.13 MHz) equipped with a Z-gradient 5 mm inverse probe. Sample temperature control was monitored within +/−0.1 K by means of the BTO2000 variable temperature unit. 1H NMR spectra to measure the linewidth of exchangeable protons were obtained by means of a pulse sequence using water suppression by excitation sculpting with gradients (T. L. Hwang, A. J. Shaka Water Suppression That Works. Excitation Sculpting Using Arbitrary Wave-Forms and Pulsed-Field Gradients, J. Magn. Reson. Ser. A, 1995, 112(3), 275-279). The carrier frequency was carefully set on resonance to the water signal. Simple “excite-detect” acquisitions (typical parameters: 16 ppm spectral window, 32 k complex data points, 3 s relaxation delay, and 64 averaged FIDs) were carried out to measure the linewidths of the exchangeable amide protons at 310 K. In vitro studies were performed by preparing 30 mM solutions of Iodixanol in aqueous phosphate buffer solution (10 mM), with the pH adjusted within the 5.5-7.4 range by addition of aliquots of HCl/NaOH. Capillaries containing the solutions were transferred into a 5 mm NMR tube filled with D2O for field-frequency lock.
Exchange rate values analogously assessed in the pH range of from 5.4 to 7.9 for some radiographic contrast agents according to the invention are provided in the following Table 3.

[2] = 7.05 T, 310 K, pH 7.4; cited from earlier work

Compound | Kex ([1]; pH 5.5, 310K) | Kex ([1]; pH 6.0, 310K) | Kex ([1]; pH 6.3, 310K) | Kex ([1]; pH 6.7, 310K) | Kex ([1]; pH 7.0, 310K) | Kex ([1]; pH 7.4, 310K) | Kex ([1]; pH 7.9, 310K) | Kex ([1]; physiological conditions, Example 1) | averaged Kex exchange rate of amide mobile protons [2]
C[C@H](O)C(=O)Nc1c(I)c(C(=O)NC(CO)CO)c(I)c(C(=O)NC(CO)CO)c1I [Iopamidol] |  |  |  |  |  |  |  |  | about 2560 s^−1
CC(=O)N(CC(O)CN(C(C)=O)c1c(I)c(C(=O)NCC(O)CO)c(I)c(C(=O)NCC(O)CO)c1I)c1c(I)c(C(=O)NCC(O)CO)c(I)c(C(=O)NCC(O)CO)c1I (stereo not drawn) [Iodixanol] | 32 s⁻¹ | 51 s⁻¹ | 80 s⁻¹ | 179 s⁻¹ | 476 s⁻¹ | 1213 s⁻¹ | 1332 s⁻¹ | exceeds 200 Hz | 

Second part, led by results:

Kex ([1]; pH 5.5, 310K) | Kex ([1]; pH 6.0, 310K) | Kex ([1]; pH 6.3, 310K) | Kex ([1]; pH 6.7, 310K) | Kex ([1]; pH 7.0, 310K) | Kex ([1]; pH 7.4, 310K) | Kex ([1]; pH 7.9, 310K) | Kex ([1]; physiological conditions, Example 1) | Compound | averaged Kex exchange rate of amide mobile protons [2]
30 s⁻¹ | 88 s⁻¹ | 164 s⁻¹ | 430 s⁻¹ | 794 s⁻¹ | 1831 s⁻¹ | 4389 s⁻¹ |  | CN(C(=O)CO)c1c(I)c(C(=O)NCC(O)CO)c(I)c(C(=O)NCC(O)CO)c1I (stereo not drawn) [Iomeprol] | 
22 s⁻¹ | 69 s⁻¹ | 139 s⁻¹ | 372 s⁻¹ | 923 s⁻¹ | 1609 s⁻¹ | 4056 s⁻¹ |  | CC(=O)N(CC(O)CO)c1c(I)c(C(=O)NCC(O)CO)c(I)c(C(=O)NCC(O)CO)c1I (stereo not drawn) [Iohexol] | 
22 s⁻¹ | 66 s⁻¹ | 118 s⁻¹ | 292 s⁻¹ | 913 s⁻¹ | 1628 s⁻¹ | 3660 s⁻¹ |  | O=C(NCC(O)CO)c1c(I)c(C(=O)NCC(O)CO)c(I)c(N(CCO)C(=O)CO)c1I (stereo not drawn) [Ioversol] | 
